Laboratory results reported in patent publication US20220125886A1 (The Board of Trustees of the Leland Stanford Junior …, priority 2019, published 2022).
Entries after “also recorded” stand apart in the source; their conditions may differ.

Experiments:
[1] = reported previously, used for the fit; cited from earlier work
[2] = Diffusion-ordered NMR spectroscopy (DOSY) of protein/CB[7]-PEG complexes; assay type: physicochemical; conditions: for diffusion rate D: DOSY, protein 6 mg mL^−1, 200 mM phosphate buffer pH 7, D2O, zinc removed with EDTA; for hydrodynamic radius (Rh): approximated from D by the Stokes-Einstein relationship
Source text: A Varian Inova 600 MHz NMR instrument was used to acquire the data. Magnetic field strengths ranging from 2 to 57 G cm^−1. The DOSY time and gradient pulse were set at 132 ms (Δ) and 3 ms (δ) respectively. All NMR data were processed using MestReNova 11.0.4 software.

[3] = Circular dichroism of protein secondary structure when bound to CB[7]-PEG; assay type: physicochemical; conditions: PBS pH 7.4, with CB[7]-PEG, with or without EDTA
Protocol: After mixing, samples were left to equilibrate for 15 minutes at room temperature. […] circular dichroism spectroscopy was performed at 20° C. with a J-815 CD Spectropolarimeter (Jasco Corporation) over a wavelength range of 185-250 nm using a 0.1 cm pathlength cell.

[4] = In vitro stability: aggregation under stressed conditions by change in transmittance at 540 nm; assay type: physicochemical
Protocol: These aggregates are large and scatter light, allowing the degree of aggregation to be evaluated by measuring the change in transmittance over time. […] Data shown in FIGS. 2A-2E are the average transmittance trace for n=3 samples per group.
The plate was immediately placed into an plate reader and incubated with continuous shaking 37° C. Absorbance readings were taken every 10 minutes at 540 nm for 100 h (BioTek SynergyH1 microplate reader).
Controls included: (i) NOVOLOG®, (ii) zinc-free NOVOLOG®, (iii) pramlintide (sodium acetate buffer at pH=4), (iv) pramlintide (PBS at pH=7), (v) NOVOLOG®+pramlintide (PBS at pH=7.4).

[5] = given for comparison; cited from earlier work
[6] = according to Webber et al., agitation; cited from earlier work

| Molecule | diffusion rate D [2] | hydrodynamic radius (Rh) [2] | effect of CB[7]-PEG binding on protein (secondary) structure [3] | other results |
| --- | --- | --- | --- | --- |
| CN(C)c1ccc2cc3ccc(N(C)C)cc3nc2c1 [AO, Acridine Orange] | – | – | – | CB[7]⋅AO equilibrium constant (Keq) [1]: 200000 M⁻¹ |
| CC[C@H](C)[C@H](NC(=O)[C@@H]1CCCN1C(=O)CNC(=O)[C@H](Cc1ccccc1)NC(=O)[C@H](CC(N)=O)NC(=O)[C@H](CC(N)=O)NC(=O)[C@H](CO)NC(=O)[C@H](CO)NC(=O)[C@H](Cc1c[nH]cn1)NC(=O)[C@@H](NC(=O)[C@H](CC(C)C)NC(=O)[C@H](Cc1ccccc1)NC(=O)[C@H](CC(N)=O)NC(=O)[C@H](C)NC(=O)[C@H](CC(C)C)NC(=O)[C@H](CCCNC(=N)N)NC(=O)[C@H](CCC(N)=O)NC(=O)[C@@H](NC(=O)[C@H](C)NC(=O)[C@@H]1CSSC[C@H](NC(=O)[C@@H](N)CCCCN)C(=O)N[C@@H](CC(N)=O)C(=O)N[C@@H]([C@@H](C)O)C(=O)N[C@@H](C)C(=O)N[C@@H]([C@@H](C)O)C(=O)N1)[C@@H](C)O)C(C)C)C(=O)N[C@@H](CC(C)C)C(=O)N1CCC[C@H]1C(=O)N1CCC[C@H]1C(=O)N[C@H](C(=O)N[C@@H](CC(N)=O)C(=O)N[C@H](C(=O)NCC(=O)N[C@@H](CO)C(=O)N[C@@H](CC(N)=O)C(=O)N[C@H](C(=O)N[C@@H](Cc1ccc(O)cc1)C(N)=O)[C@@H](C)O)C(C)C)[C@@H](C)O [pramlintide] | ~2×10^−10 m^2 s^−1 | 1.2 nm | did not affect protein structure; also recorded: no difference in protein secondary structure was observed | ratio of diffusion rates, pramlintide alone to insulin in a standard formulation ([2]; standard formulation): ~2.3; time stable ([4]; pH=4 sodium acetate buffer): over 100 hours; time to aggregation / time stable ([4]; pH=7.4 in PBS, aggregation measured as ~5% change in transmittance at 540 nm): 15 ± 4 h |
| insulin aspart | ~1.2×10^−10 m^2 s^−1 | ~2.2 nm | did not affect protein structure; also recorded: did not alter the secondary structure | – |
| insulin hexamer: hexameric association state of insulin in standard zinc formulations | – | – | – | hydrodynamic radius [5]: approximately 2.8 nm |
| native insulin: recombinant human insulin of Webber et al. | – | – | – | aggregation time (tA), 10% reduction in transmittance [6]: 13.6 ± 0.2 h |
